These results are taken from publication PMC6201930 (PLoS ONE, 2018).

The subject of test [1] is tGFP-CFTR542X-HA-HIS construct (codon 542 UGA) in 293H cells. The test is described as follows: tGFP-542X readthrough assay (HA-HIS MSD immunoassay). Type of test: cell-based, human.
For test [2], the system named is fLuc mRNA harboring a UGA nonsense mutation at codon 190 (fLuc-190-NS). Type of test: biochemical, rabbit. The source says:
ThefLuc-190-NS assay is an in vitro rabbit reticulocyte lysate translation of an fLuc mRNA harboring a UGA nonsense mutation at codon 190 (fLuc-190-NS). It is believed that positively charged aminoglycosides are poorly taken up by cells, and we used this cell-free readthrough assay to eliminate the potential variable of cell uptake when measuring readthrough potency. […] Readthrough protein was detected using a HA-HIS MSD immunoassay described previously.
This cell-free translation assay used synthetic LUC mRNAs harboring an EMCV IRES and LUC codon 190-UGA premature stop codon prepared using the MegaScript in vitro transcription kit (Ambion). Translation reactions were done with the Rabbit Reticulocyte Lysate System (Promega) with 100 ng RNA and increasing concentrations of aminoglycosides. The amount of luminescence produced was determined after approximately 4 hours using a Viewlux CCD imager (Perkin-Elmer). Fold suppression over background was calculated as (aminoglycoside light units/PBS light units).

[3] abbreviates: individual experiments (S1 File).
The mark [4] stands for this setting: individual experiments (S1 File), unit not printed for EC5X (EC2X of the sheet in uM).

Each structure is given as a SMILES string. Where “and” joins values, the source holds several entries; their conditions need not be identical. Equal values may be shown once. Read-outs that look alike come from different tables or passages of the source. Some results are limits rather than exact numbers.

As for `CN[C@@H]1[C@@H](O)[C@@H](O[C@@H]2[C@@H](O)[C@H](O[C@H]3OC(CN)=CC[C@H]3N)[C@@H](N)C[C@H]2N)OC[C@]1(C)O` [Sisomycin], the “tGFP-542X EC2X” value in test [1] (293H cells, 24 hours, average ± SD) is more than 1000 µM; in test [1] (setting [3]), more than 1000 µM. Besides, the “tGFP-542X Maxfold” value in test [1] (AVERAGE (S1 File)) is 1.3; in test [1] (setting [3]) it was 1.27 and 1.38 and 1.37; in test [1] (maximum readthrough above background, average ± SD) it was 1 ± 0.1 fold. Moreover, the “tGFP-542X EC5X” value in test [1] (setting [4]) was more than 1000. The “fLuc-190-NS EC2X” value in test [2] (AVERAGE (S1 File)) was 2.6 µM; in test [2] (cell-free, average ± SD), 2.596 ± 0.428 µM; in test [2] (setting [3]) it was 2.96 µM and 2.70 µM and 2.13 µM. Further, the “fLuc-190-NS MaxFold” value was 4.0 in test [2] (AVERAGE (S1 File)); 4 ± 0.5 fold in test [2] (cell-free, average ± SD); 3.55 and 3.95 and 4.47 in test [2] (setting [3]). Besides, in test [2] (setting [4]), the “fLuc-190-NS EC5X” value was more than 30.
